Data: patent US20240156140A1, “AMIDE COMPOUNDS AND THEIR USE AS FLAVOR MODIFIERS” (Firmenich Incorporated, priority 2021, published 2024)
pEC50: −log10 of the molar value.

biological target: T1, T1R umami taste receptor (Homo sapiens, UniProt Q7RTX0+Q7RTX1); experiment: in vitro cell-based assay, enhancement of MSG binding; conditions: cells that express the T1R umami taste receptor
T1 sequence (Q7RTX1 21-841): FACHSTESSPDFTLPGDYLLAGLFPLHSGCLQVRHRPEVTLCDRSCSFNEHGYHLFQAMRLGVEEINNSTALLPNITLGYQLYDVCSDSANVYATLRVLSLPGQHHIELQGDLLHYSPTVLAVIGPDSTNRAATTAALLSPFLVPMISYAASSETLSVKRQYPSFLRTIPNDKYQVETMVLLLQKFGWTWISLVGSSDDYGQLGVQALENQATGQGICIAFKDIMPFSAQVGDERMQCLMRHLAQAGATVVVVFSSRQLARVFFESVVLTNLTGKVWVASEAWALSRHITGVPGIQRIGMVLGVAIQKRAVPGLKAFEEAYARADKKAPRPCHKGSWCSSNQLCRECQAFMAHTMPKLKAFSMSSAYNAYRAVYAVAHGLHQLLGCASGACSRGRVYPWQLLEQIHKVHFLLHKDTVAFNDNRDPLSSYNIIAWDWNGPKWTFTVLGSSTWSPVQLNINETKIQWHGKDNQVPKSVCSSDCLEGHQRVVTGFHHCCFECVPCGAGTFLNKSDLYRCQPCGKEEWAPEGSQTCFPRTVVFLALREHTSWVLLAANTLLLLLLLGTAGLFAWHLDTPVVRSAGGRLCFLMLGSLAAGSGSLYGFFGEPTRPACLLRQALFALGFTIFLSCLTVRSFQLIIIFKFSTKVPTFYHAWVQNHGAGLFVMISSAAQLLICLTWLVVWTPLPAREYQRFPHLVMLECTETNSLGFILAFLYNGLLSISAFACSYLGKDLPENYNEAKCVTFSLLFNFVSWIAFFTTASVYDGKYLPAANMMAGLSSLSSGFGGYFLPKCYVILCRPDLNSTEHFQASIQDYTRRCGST
T1 sequence (Q7RTX0 21-852): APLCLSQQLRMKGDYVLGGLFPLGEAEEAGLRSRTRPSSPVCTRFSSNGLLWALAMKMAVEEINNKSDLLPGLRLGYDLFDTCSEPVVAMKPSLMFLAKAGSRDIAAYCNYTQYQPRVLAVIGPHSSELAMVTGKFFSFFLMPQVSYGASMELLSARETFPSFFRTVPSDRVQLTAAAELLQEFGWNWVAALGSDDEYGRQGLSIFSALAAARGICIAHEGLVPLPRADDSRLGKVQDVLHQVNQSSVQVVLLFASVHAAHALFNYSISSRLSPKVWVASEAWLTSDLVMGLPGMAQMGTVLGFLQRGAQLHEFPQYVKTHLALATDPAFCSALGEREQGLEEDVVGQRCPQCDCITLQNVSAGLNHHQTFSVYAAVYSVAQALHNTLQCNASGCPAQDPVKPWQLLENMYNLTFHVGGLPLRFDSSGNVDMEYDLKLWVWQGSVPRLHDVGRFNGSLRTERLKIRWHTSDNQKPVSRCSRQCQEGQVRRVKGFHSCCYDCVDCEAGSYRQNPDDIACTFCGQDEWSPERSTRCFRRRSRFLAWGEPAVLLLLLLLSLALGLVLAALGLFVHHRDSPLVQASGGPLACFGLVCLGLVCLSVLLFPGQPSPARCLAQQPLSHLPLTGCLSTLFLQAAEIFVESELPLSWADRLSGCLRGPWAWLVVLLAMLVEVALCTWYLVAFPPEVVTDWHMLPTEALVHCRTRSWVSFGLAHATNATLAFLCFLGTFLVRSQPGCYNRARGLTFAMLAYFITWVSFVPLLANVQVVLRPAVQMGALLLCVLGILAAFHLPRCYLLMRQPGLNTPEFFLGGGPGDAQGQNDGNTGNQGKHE
Experimental: Each of the compounds set forth in Table 2 were synthesized according to one of the general procedures set forth above in Example 1 or 2. Thereafter, the compounds were tested in an in vitro cell-based assay having cells that express the T1R umami taste receptor. Dose-binding curves were recorded and the EC50 was determined for enhancement of MSG binding. Table 2 sets forth the calculated EC50 values for certain tested compounds.

pEC50 | SMILES
< 4.30 | O=C(NCCC[C@H](NC(=O)c1ccccc1)C(=O)O)c1ccccc1 [Compound 101]
4.52 | COC(=O)[C@H](CCCNC(=O)c1ccccc1)NC(=O)c1ccccc1 [Compound 102]
5.70 | CCOC(=O)[C@H](CCCNC(=O)c1ccccc1)NC(=O)c1ccccc1 [Compound 103]
4.85 | CCOC(=O)[C@H](CCCNC(=O)c1ccc(C)c(C)c1)NC(=O)c1ccc(C)c(C)c1 [Compound 104]
4.46 | CCOC(=O)[C@H](CCCNC(=O)c1ccc2c(c1)OCO2)NC(=O)c1ccc2c(c1)OCO2 [Compound 105]
5.46 | C/C=C(\C)C(=O)NCCC[C@H](NC(=O)c1ccccc1)C(=O)OC [Compound 106]
5.10 | C/C=C(\C)C(=O)NCCC[C@H](NC(=O)c1ccccc1)C(=O)OCC [Compound 107]
5.60 | C/C=C(\C)C(=O)NCCC[C@H](NC(=O)c1ccc(C)cc1)C(=O)OC [Compound 108]
5.82 | C/C=C(\C)C(=O)NCCC[C@H](NC(=O)c1ccc(C)cc1)C(=O)OCC [Compound 109]
6.15 | C/C=C(\C)C(=O)NCCC[C@H](NC(=O)c1ccc(OC)cc1)C(=O)OC [Compound 110]
6.40 | C/C=C(\C)C(=O)NCCC[C@H](NC(=O)c1ccc(OC)cc1)C(=O)OCC [Compound 111]
> 7.00 | C/C=C(\C)C(=O)NCCC[C@H](NC(=O)c1ccc(C)c(C)c1)C(=O)OC [Compound 112]
6.30 | C/C=C(\C)C(=O)NCCC[C@H](NC(=O)c1ccc(C)c(C)c1)C(=O)OCC [Compound 113]
6.40 | C/C=C(\C)C(=O)NCCC[C@H](NC(=O)c1cc(C)c(C)c(C)c1)C(=O)OC [Compound 114]
7.40 | C/C=C(\C)C(=O)NCCC[C@H](NC(=O)c1cc(C)c(C)c(C)c1)C(=O)OCC [Compound 115]
6.30 | C/C=C(\C)C(=O)NCCC[C@H](NC(=O)c1ccc2c(c1)OCO2)C(=O)OCC [Compound 121]
6.70 | C/C=C(\C)C(=O)NCCC[C@H](NC(=O)/C=C/c1ccccc1)C(=O)OC [Compound 122]
6.22 | C/C=C(\C)C(=O)NCCC[C@H](NC(=O)/C=C/c1ccccc1)C(=O)OCC [Compound 123]
6.30 | C/C=C(\C)C(=O)NCCC[C@H](NC(=O)/C=C/c1ccccc1OC)C(=O)OC [Compound 124]
6.19 | C/C=C(\C)C(=O)NCCC[C@H](NC(=O)/C=C/c1ccc(OC)cc1)C(=O)OC [Compound 128]
7.22 | C/C=C(\C)C(=O)NCCC[C@H](NC(=O)/C=C/c1ccc(OC)cc1)C(=O)OCC [Compound 129]
7.00 | C/C=C(\C)C(=O)NCCC[C@H](NC(=O)/C=C/c1ccc(OC)cc1OC)C(=O)OC [Compound 132]
6.40 | C/C=C(\C)C(=O)NCCC[C@H](NC(=O)/C=C/c1ccc(OC)cc1OC)C(=O)OCC [Compound 133]
